{"source": "PubChem BioAssay AID2060886", "about": "(Molecular Pharmacology Branch, DTP, NCI, 2025)", "system": "653999-131-R-J2-PDC complex spheroids, growth inhibition", "test": "Anticancer human tumor 653999-131-R-J2-PDC patient-derived lung adenocarcinoma cell line growth inhibition [RAS]", "conditions": "for viability, T/C: stronger effect = lower value", "procedure,_shortened": "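Multi-cell-type spheroids: tumor cells plus HUVEC endothelial cells and mesenchymal stem cells. RAS-pathway inhibitors were combined with targeted agents, each dosed in half-log steps down from clinical Cmax, or from 10 microM when Cmax was unknown.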", "note": "pIC50: −log10 of the molar value. Where “and” joins values, the source holds several entries; their conditions need not be identical. Equal entries are not always repeated."}
{"molecule": "CC1(C)CCC(Nc2ncc(C(F)(F)F)c(-c3c[nH]c4c(P(C)(C)=O)c(C#N)ccc34)n2)CN1", "note": "(stereo unspecified) + CCn1c(-c2cccnc2C(C)OC)c2c3cc(ccc31)N1CCOC(CC(NC(=O)C(C(C)C)N(C)C(=O)C3(F)CCN(C(=O)C#CC(C)(C)N(C)C)CC3)C(=O)N3CCCC(N3)C(=O)OCC(C)(C)C2)C1;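 note: spheroids exposed to the agents for seven days before the readout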", "values": [{"measurement": "pIC50", "setting": "curve of first compound, second compound 0.000949 µM", "value": "< 6.52"}, {"measurement": "pIC50", "setting": "curve of first compound, second compound 0.003 µM", "value": "< 6.52"}, {"measurement": "pIC50", "setting": "curve of first compound, second compound 0.00949 µM", "value": "< 6.52"}, {"measurement": "pIC50", "setting": "curve of first compound, second compound 0.03 µM", "value": "< 6.52"}, {"measurement": "pIC50", "setting": "curve of first compound, second compound 0.0949 µM", "value": "< 6.52"}, {"measurement": "pIC50", "setting": "curve of first compound, second compound 0.3 µM", "value": "< 6.52"}, {"measurement": "viability, T/C", "setting": "second compound 0.000949 µM, first compound 0.000949 µM", "value": 89.4, "unit": "%"}, {"measurement": "viability, T/C", "setting": "second compound 0.000949 µM, first compound 0.003 µM", "value": 82.6, "unit": "%"}, {"measurement": "viability, T/C", "setting": "second compound 0.000949 µM, first compound 0.00949 µM", "value": 81.1, "unit": "%"}, {"measurement": "viability, T/C", "setting": "second compound 0.000949 µM, first compound 0.03 µM", "value": 79.7, "unit": "%"}, {"measurement": "viability, T/C", "setting": "second compound 0.000949 µM, first compound 0.0949 µM", "value": 84.6, "unit": "%"}, {"measurement": "viability, T/C", "setting": "second compound 0.000949 µM, first compound 0.3 µM", "value": 71.6, "unit": "%"}, {"measurement": "viability, T/C", "setting": "second compound 0.003 µM, first compound 0.000949 µM", "value": 96, "unit": "%"}, {"measurement": "viability, T/C", "setting": "second compound 0.003 µM, first compound 0.003 µM", "value": 84.2, "unit": "%"}, {"measurement": "viability, T/C", "setting": "second compound 0.003 µM, first compound 0.00949 µM", "value": 79.5, "unit": "%"}, {"measurement": "viability, T/C", "setting": "second compound 0.003 µM, first compound 0.03 µM", "value": 77.7, "unit": "%"}, {"measurement": "viability, T/C", "setting": "second compound 0.003 µM, first compound 0.0949 µM", "value": 84.9, "unit": "%"}, {"measurement": "viability, T/C", "setting": "second compound 0.003 µM, first compound 0.3 µM", "value": 71.2, "unit": "%"}, {"measurement": "viability, T/C", "setting": "second compound 0.00949 µM, first compound 0.000949 µM", "value": 99.5, "unit": "%"}, {"measurement": "viability, T/C", "setting": "second compound 0.00949 µM, first compound 0.003 µM", "value": 89.3, "unit": "%"}, {"measurement": "viability, T/C", "setting": "second compound 0.00949 µM, first compound 0.00949 µM", "value": 84.9, "unit": "%"}, {"measurement": "viability, T/C", "setting": "second compound 0.00949 µM, first compound 0.03 µM", "value": 72, "unit": "%"}, {"measurement": "viability, T/C", "setting": "second compound 0.00949 µM, first compound 0.0949 µM", "value": 79.3, "unit": "%"}, {"measurement": "viability, T/C", "setting": "second compound 0.00949 µM, first compound 0.3 µM", "value": 87.2, "unit": "%"}, {"measurement": "viability, T/C", "setting": "second compound 0.03 µM, first compound 0.000949 µM", "value": 85.4, "unit": "%"}, {"measurement": "viability, T/C", "setting": "second compound 0.03 µM, first compound 0.003 µM", "value": 83.9, "unit": "%"}, {"measurement": "viability, T/C", "setting": "second compound 0.03 µM, first compound 0.00949 µM", "value": 71, "unit": "%"}, {"measurement": "viability, T/C", "setting": "second compound 0.03 µM, first compound 0.03 µM", "value": 74.1, "unit": "%"}, {"measurement": "viability, T/C", "setting": "second compound 0.03 µM, first compound 0.0949 µM", "value": 77.4, "unit": "%"}, {"measurement": "viability, T/C", "setting": "second compound 0.03 µM, first compound 0.3 µM", "value": 76.9, "unit": "%"}, {"measurement": "viability, T/C", "setting": "second compound 0.0949 µM, first compound 0.000949 µM", "value": 80.4, "unit": "%"}, {"measurement": "viability, T/C", "setting": "second compound 0.0949 µM, first compound 0.003 µM", "value": 66.8, "unit": "%"}, {"measurement": "viability, T/C", "setting": "second compound 0.0949 µM, first compound 0.00949 µM", "value": 67.5, "unit": "%"}, {"measurement": "viability, T/C", "setting": "second compound 0.0949 µM, first compound 0.03 µM", "value": 68, "unit": "%"}, {"measurement": "viability, T/C", "setting": "second compound 0.0949 µM, first compound 0.0949 µM", "value": 74, "unit": "%"}, {"measurement": "viability, T/C", "setting": "second compound 0.0949 µM, first compound 0.3 µM", "value": 70.3, "unit": "%"}, {"measurement": "viability, T/C", "setting": "second compound 0.3 µM, first compound 0.000949 µM", "value": 82.3, "unit": "%"}, {"measurement": "viability, T/C", "setting": "second compound 0.3 µM, first compound 0.003 µM", "value": 71.7, "unit": "%"}, {"measurement": "viability, T/C", "setting": "second compound 0.3 µM, first compound 0.00949 µM", "value": 63.8, "unit": "%"}, {"measurement": "viability, T/C", "setting": "second compound 0.3 µM, first compound 0.03 µM", "value": 63.9, "unit": "%"}, {"measurement": "viability, T/C", "setting": "second compound 0.3 µM, first compound 0.0949 µM", "value": 70.8, "unit": "%"}, {"measurement": "viability, T/C", "setting": "second compound 0.3 µM, first compound 0.3 µM", "value": 64.5, "unit": "%"}]}
{"molecule": "CC(C)n1nc(-c2ccc3oc(N)nc3c2)c2c(N)ncnc21", "values": [{"measurement": "viability, T/C", "setting": "compound 0.000316 µM", "value": "87.2% and 81.4% and 79.2%"}, {"measurement": "viability, T/C", "setting": "compound 0.001 µM", "value": "89.2% and 93.6% and 71.3%"}, {"measurement": "viability, T/C", "setting": "compound 0.00316 µM", "value": "87.7% and 76.8% and 77.8%"}, {"measurement": "viability, T/C", "setting": "compound 0.01 µM", "value": "61.8% and 63.5% and 57.9%"}, {"measurement": "viability, T/C", "setting": "compound 0.0316 µM", "value": "43.1% and 40.6% and 35.8%"}, {"measurement": "viability, T/C", "setting": "compound 0.1 µM", "value": "34.1% and 25.4% and 27.2%"}, {"measurement": "pIC50", "setting": "curve of compound", "value": "7.71 and 7.81"}]}
{"molecule": "C=CC(=O)Nc1cc(Nc2nccc(-c3cn(C)c4ccccc34)n2)c(OC)cc1N(C)CCN(C)C", "note": "+ C#Cc1c(F)ccc2cc(O)cc(-c3ncc4c(N5CC6CCC(C5)N6)nc(OCC56CCCN5CC(F)C6)nc4c3F)c12", "values": [{"measurement": "pIC50", "setting": "curve of first compound, second compound 0.0316 µM", "value": "< 6.00"}, {"measurement": "pIC50", "setting": "curve of first compound, second compound 0.1 µM", "value": 6.21}, {"measurement": "pIC50", "setting": "curve of first compound, second compound 0.316 µM", "value": 7.21}, {"measurement": "pIC50", "setting": "curve of first compound, second compound 1 µM", "value": 7.75}, {"measurement": "pIC50", "setting": "curve of first compound, second compound 3.16 µM", "value": "> 8.50"}, {"measurement": "pIC50", "setting": "curve of first compound, second compound 10 µM", "value": "> 8.50"}, {"measurement": "viability, T/C", "setting": "second compound 0.0316 µM, first compound 0.00316 µM", "value": 96.1, "unit": "%"}, {"measurement": "viability, T/C", "setting": "second compound 0.0316 µM, first compound 0.01 µM", "value": 80.7, "unit": "%"}, {"measurement": "viability, T/C", "setting": "second compound 0.0316 µM, first compound 0.0316 µM", "value": 82.9, "unit": "%"}, {"measurement": "viability, T/C", "setting": "second compound 0.0316 µM, first compound 0.1 µM", "value": 68.3, "unit": "%"}, {"measurement": "viability, T/C", "setting": "second compound 0.0316 µM, first compound 0.316 µM", "value": 55.5, "unit": "%"}, {"measurement": "viability, T/C", "setting": "second compound 0.0316 µM, first compound 1 µM", "value": 63.3, "unit": "%"}, {"measurement": "viability, T/C", "setting": "second compound 0.1 µM, first compound 0.00316 µM", "value": 89.4, "unit": "%"}, {"measurement": "viability, T/C", "setting": "second compound 0.1 µM, first compound 0.01 µM", "value": 90.8, "unit": "%"}, {"measurement": "viability, T/C", "setting": "second compound 0.1 µM, first compound 0.0316 µM", "value": 57.7, "unit": "%"}, {"measurement": "viability, T/C", "setting": "second compound 0.1 µM, first compound 0.1 µM", "value": 69.9, "unit": "%"}, {"measurement": "viability, T/C", "setting": "second compound 0.1 µM, first compound 0.316 µM", "value": 57.2, "unit": "%"}, {"measurement": "viability, T/C", "setting": "second compound 0.1 µM, first compound 1 µM", "value": 44.3, "unit": "%"}, {"measurement": "viability, T/C", "setting": "second compound 0.316 µM, first compound 0.00316 µM", "value": 77, "unit": "%"}, {"measurement": "viability, T/C", "setting": "second compound 0.316 µM, first compound 0.01 µM", "value": 95, "unit": "%"}, {"measurement": "viability, T/C", "setting": "second compound 0.316 µM, first compound 0.0316 µM", "value": 65.1, "unit": "%"}, {"measurement": "viability, T/C", "setting": "second compound 0.316 µM, first compound 0.1 µM", "value": 37.1, "unit": "%"}, {"measurement": "viability, T/C", "setting": "second compound 0.316 µM, first compound 0.316 µM", "value": 40.9, "unit": "%"}, {"measurement": "viability, T/C", "setting": "second compound 0.316 µM, first compound 1 µM", "value": 39.2, "unit": "%"}, {"measurement": "viability, T/C", "setting": "second compound 1 µM, first compound 0.00316 µM", "value": 60.9, "unit": "%"}, {"measurement": "viability, T/C", "setting": "second compound 1 µM, first compound 0.01 µM", "value": 53.7, "unit": "%"}, {"measurement": "viability, T/C", "setting": "second compound 1 µM, first compound 0.0316 µM", "value": 43.2, "unit": "%"}, {"measurement": "viability, T/C", "setting": "second compound 1 µM, first compound 0.1 µM", "value": 42.8, "unit": "%"}, {"measurement": "viability, T/C", "setting": "second compound 1 µM, first compound 0.316 µM", "value": 36.1, "unit": "%"}, {"measurement": "viability, T/C", "setting": "second compound 1 µM, first compound 1 µM", "value": 28.1, "unit": "%"}, {"measurement": "viability, T/C", "setting": "second compound 3.16 µM, first compound 0.00316 µM", "value": 45.6, "unit": "%"}, {"measurement": "viability, T/C", "setting": "second compound 3.16 µM, first compound 0.01 µM", "value": 35.2, "unit": "%"}, {"measurement": "viability, T/C", "setting": "second compound 3.16 µM, first compound 0.0316 µM", "value": 38.3, "unit": "%"}, {"measurement": "viability, T/C", "setting": "second compound 3.16 µM, first compound 0.1 µM", "value": 25.9, "unit": "%"}, {"measurement": "viability, T/C", "setting": "second compound 3.16 µM, first compound 0.316 µM", "value": 22.8, "unit": "%"}, {"measurement": "viability, T/C", "setting": "second compound 3.16 µM, first compound 1 µM", "value": 19.6, "unit": "%"}, {"measurement": "viability, T/C", "setting": "second compound 10 µM, first compound 0.00316 µM", "value": 35.2, "unit": "%"}, {"measurement": "viability, T/C", "setting": "second compound 10 µM, first compound 0.01 µM", "value": 27.7, "unit": "%"}, {"measurement": "viability, T/C", "setting": "second compound 10 µM, first compound 0.0316 µM", "value": 26.4, "unit": "%"}, {"measurement": "viability, T/C", "setting": "second compound 10 µM, first compound 0.1 µM", "value": 15.5, "unit": "%"}, {"measurement": "viability, T/C", "setting": "second compound 10 µM, first compound 0.316 µM", "value": 15.2, "unit": "%"}, {"measurement": "viability, T/C", "setting": "second compound 10 µM, first compound 1 µM", "value": 10.5, "unit": "%"}]}
